In patent US10981932B2, “Macrocyclic indole derivatives” (Bayer Aktiengesellschaft, priority 2016, dated 2021) one finds IC50 and EC50 data, which are given here for ten molecules.

SMILES strings stand for the structures. Counter-ions that a name gives are not always drawn.

The target of series [1] is MCL-1 (Homo sapiens, UniProt Q07820). The experiment in a line: Protein-protein interaction assay MCL-1/Noxa BH3 peptide (MCL-1 assay), TR-FRET. The format is binding. The settings on record: MBP-MCL-1 / Noxa BH3-derived peptide, median. The method, boiled down:
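IC50 came from a 4-parameter fit of the normalized 665/620 nm TR-FRET ratio (anti-MBP Eu-cryptate/streptavidin-XL665). Compounds (0.1 nM–20 μM, duplicates) were preincubated 10 min at 22 °C with 1 nM MBP-MCL-1 in pH 7 Tris/NaCl/KF buffer, then read after 1 h at 22 °C plus overnight at 4 °C.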

For series [2], the system named is SUDHL5. The experiment in a line: Induction of caspase-3/7 activity (Caspase-Glo 3/7), SUDHL5. The settings on record: caspase-3/7 induction, SUDHL5 cells, 3 h treatment; median. The format is cell-based. The essentials: (§1)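 DLBCL lines SUDHL5 and SUDHL10 treated with compounds for 3 h at 37 °C; caspase-3/7 activity read by Caspase-Glo 3/7 luminescence. Medium-only background subtracted; EC50 fitted with bottom fixed at 1 and top fixed at the reference compound's maximal induction.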

The test system of series [3] is SUDHL10. The experiment in a line: Induction of caspase-3/7 activity (Caspase-Glo 3/7), SUDHL10. It is filed as cell-based. The settings on record: caspase-3/7 induction, SUDHL10 cells, 3 h treatment; median. The method, boiled down: as §1
In series [4] the test system is SUDHL5. The experiment in a line: Anti-proliferative effect (CellTiter-Glo, 72 h), SUDHL5. The settings on record: SUDHL5 cells, antiproliferation, 72 h incubation, median, read-out: Antiproli SUDHL5 [M] (median). The format is cell-based. The method, boiled down:
(§2)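 Cells plated and incubated with compounds for 72 h at 37 °C, with a parallel day 0 reference plate for time-zero signal. Viability read by CellTiter-Glo luminescence after 10 min, measured identically on the day 0 and 72 h plates.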

Series [5] deals with SUDHL10. The experiment in a line: Anti-proliferative effect (CellTiter-Glo, 72 h), SUDHL10. The format is cell-based. The settings on record: SUDHL10 cells, antiproliferation, 72 h incubation, median, read-out: Antiproli SUDHL10 [M] (median). The essentials: as §2
The subject of series [6] is A2780. The experiment in a line: Anti-proliferative effect (CellTiter-Glo, 72 h), A2780. The format is cell-based. The settings on record: A2780 cells, median, read-out: IC50 antiproliferation assay A2780 [M] (median). The essentials: as §2
Series [7] has as its system SUDHL5. The experiment in a line: Induction of cytotoxicity (CellTiter-Glo, 5 h), SUDHL5. The settings on record: read-out: Cytotox SUDHL5 [M] (median); SUDHL5 cells, cytotoxicity induction, CellTiter-Glo, 5 h incubation, median.
Series [8] concerns SUDHL10. The experiment in a line: Induction of cytotoxicity (CellTiter-Glo, 5 h), SUDHL10. The settings on record: read-out: Cytotox SUDHL10 [M] (median); SUDHL10 cells, cytotoxicity induction, CellTiter-Glo, 5 h incubation, median.

Sequence of MCL-1 (Q07820 whole entry): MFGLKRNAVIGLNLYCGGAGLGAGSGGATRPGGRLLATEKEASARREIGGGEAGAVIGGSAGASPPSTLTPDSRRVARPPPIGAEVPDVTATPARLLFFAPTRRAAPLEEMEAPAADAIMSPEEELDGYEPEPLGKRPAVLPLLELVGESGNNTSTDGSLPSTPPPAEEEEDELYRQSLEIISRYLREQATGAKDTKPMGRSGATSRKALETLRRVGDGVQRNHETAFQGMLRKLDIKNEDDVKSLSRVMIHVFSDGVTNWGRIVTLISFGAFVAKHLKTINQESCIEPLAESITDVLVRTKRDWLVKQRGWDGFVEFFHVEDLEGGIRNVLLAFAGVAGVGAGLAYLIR

`Cc1ccc2c(CCCOc3cccc4ccccc34)c(C(=O)O)n3c2c1-c1c(nn(C)c1C)COCCCC3` (single isomer, unassigned; enantiomer 2) [Example 077, 2,3,4-trimethyl-7-[3-(naphthalen-1-yloxy)propyl]-2,10,11,12,13,15-hexahydropyrazolo[4′,3′:9,10][1,6]oxazacycloundecino[8,7,6-hi]indole-8-carboxylic Acid (Enantiomer 2)]: the IC50 was 0.0342 µM in series [1]; 2.73e-05 M in series [4]; 1.17e-05 M in series [5]; 2.06e-05 M in series [6]; over 3.3e-05 M in series [7]; over 3.3e-05 M in series [8]. Also, the concentration giving a half-maximal response (EC50) in series [2] and in series [3] was over 33 µM throughout.
Consider `CCn1nc2c(c1C1CC1)-c1cccc3c(CCCOc4cccc5ccccc45)c(C(=O)O)n(c13)CCCCOC2` (single isomer, unassigned; enantiomer 2) [Example 083, 3-cyclopropyl-2-ethyl-7-[3-(naphthalen-1-yloxy)propyl]-2,10,11,12,13,15-hexahydropyrazolo[4′,3′:9,10][1,6]oxazacycloundecino[8,7,6-hi]indole-8-carboxylic acid-N-ethylethanamine Salt (Enantiomer 2)], for which the IC50 was 0.172 µM in series [1]; 2.68e-05 M in series [4]; 1.47e-05 M in series [5]; 1.38e-05 M in series [6]; over 3.3e-05 M in series [7]; over 3.3e-05 M in series [8]. Further, the EC50 in series [2] and in series [3] was over 33 µM in each case.
`COCCn1nc2c(c1C1CC1)-c1cccc3c(CCCOc4cccc5ccccc45)c(C(=O)O)n(c13)CCCCOC2` (single isomer, unassigned; enantiomer 2) [Example 086, 3-Cyclopropyl-2-(2-methoxyethyl)-7-[3-(naphthalen-1-yloxy)propyl]-2,10,11,12,13,15-hexahydropyrazolo[4′3′:9,10][1,6]oxazacycloundecino[8,7,6-hi]indole-carboxylic acid-N-ethylethanamine Salt (Enantiomer 2)]: the IC50 is 0.0728 µM in series [1]; 1.72e-05 M in series [4]; 7e-06 M in series [5]; 1.36e-05 M in series [6]; 3.15e-05 M in series [7]; over 3.3e-05 M in series [8]. The EC50 in series [2] and in series [3] was over 33 µM in each case.
Regarding `Cc1c2c(nn1C1CC1)COCCCCn1c(C(=O)O)c(CCCOc3cccc4ccccc34)c3cccc-2c31` (single isomer, unassigned; enantiomer 2) [Example 094, 2-cyclopropyl-3-methyl-7-[3-(naphthalen-1-yloxy)propyl]-2,10,11,12,13,15-hexahydropyrazolo[4′,3′:9,10][1,6]oxazacycloundecino[8,7,6-hi]indole-8-carboxylic acid-N-ethylethanamine Salt (Enantiomer 2)], the IC50 in series [1] was 0.12 µM; in series [4] it was 3.11e-05 M; in series [5], 1.64e-05 M; in series [6], 2.58e-05 M; in series [7] it was over 3.3e-05 M; in series [8], over 3.3e-05 M. Moreover, the 50% effective concentration (EC50) in series [2] and in series [3] was over 33 µM in each case.
Take `Cc1nn(CCN2CCOCC2)c2c1-c1cccc3c(CCCOc4cccc5ccccc45)c(C(=O)O)n(c13)CCCCOC2` (single isomer, unassigned; enantiomer 2) [Example 097, 3-methyl-1-[2-(morpholin-4-yl)ethyl]-7-[3-(naphthalen-1-yloxy)propyl]-1,10,11,12,13,15-hexahydropyrazolo[4′,3′:9,10][1,6]oxazacycloundecino[8,7,6-hi]indole-carboxylic acid-N-ethylethanamine Salt (Enantiomer 2)]: the IC50 in series [1] is 0.0589 µM; in series [4], 2.25e-05 M; in series [5], 1.21e-05 M; in series [6], 2.84e-05 M; in series [7] it was 3.05e-05 M; in series [8], over 3.3e-05 M. For the same molecule, the EC50 in series [2] and in series [3] was over 33 µM in each case.
Regarding `COCCn1nc(C2CC2)c2c1COCCCCn1c(C(=O)O)c(CCCOc3cccc4ccccc34)c3cccc-2c31` (single isomer, unassigned; enantiomer 2) [Example 104, 3-cyclopropyl-1-(2-methoxyethyl)-7-[3-(naphthalen-1-yloxy)propyl]-1,10,11,12,13,15-hexahydropyrazolo[4′,3′:9,10][1,6]oxazacycloundecino[8,7,6-hi]indole-8-carboxylic acid-N-ethylethanamine Salt (Enantiomer 2)], the IC50 is 0.106 µM in series [1]; 2e-05 M in series [4]; 1.02e-05 M in series [5]; 2.21e-05 M in series [6]; over 3.3e-05 M in series [7]; over 3.3e-05 M in series [8]. Moreover, the EC50 in series [2] and in series [3] was over 33 µM throughout.
For `COCCn1nc2c(c1C)-c1cccc3c(CCCOc4cccc5ccccc45)c(C(=O)O)n(c13)CCCCOC2` (single isomer, unassigned; enantiomer 2) [Example 108, 2-(2-methoxyethyl)-3-methyl-7-[3-(naphthalen-1-yloxy)propyl]-2,10,11,12,13,15-hexahydropyrazolo[4′,3′:9,10][1,6]oxazacycloundecino[8,7,6-hi]indole-8-carboxylic acid-N-ethylethanamine Salt (Enantiomer 2)], the IC50 was 0.0543 µM in series [1]; 1.51e-05 M in series [4]; 1.17e-05 M in series [5]; 1.52e-05 M in series [6]; over 3.3e-05 M in series [7]; over 3.3e-05 M in series [8]. Also, the EC50 in series [2] and in series [3] was over 33 µM throughout.
Regarding `Cc1nn(CC(F)(F)F)c2c1-c1cccc3c(CCCOc4cccc5ccccc45)c(C(=O)O)n(c13)CCCCOC2` (single isomer, unassigned; enantiomer 2) [Example 111, 3-methyl-7-[3-(naphthalen-1-yloxy)propyl]-1-(2,2,2-trifluoroethyl)-1,10,11,12,13,15-hexahydropyrazolo[4′,3′:9,10][,6]oxazacycloundecino[8,7,6-hi]indole-8-carboxy ic acid-N-ethylethanamine Salt (Enantiomer 2)], the IC50 in series [1] is 0.327 µM; in series [4], over 3.3e-05 M; in series [5], 5.45e-06 M; in series [6], 2.61e-05 M; in series [7] it was over 3.3e-05 M; in series [8], over 3.3e-05 M. Moreover, the EC50 in series [2] and in series [3] was over 33 µM in each case.
With `Cn1nc(CN2CCOCC2)c2c1COCC=CCn1c(C(=O)O)c(CCCOc3cccc4ccccc34)c3cccc-2c31` (single isomer, unassigned; enantiomer 2) [Example 134, (E)-1-methyl-3-(morpholin-4-ylmethyl)-7-[3-(naphthalen-1-yloxy)propyl]-1,13,15-tetrahydropyrazolo[4′,3′:9,10][1,6]oxazacycloundecino[8,7,6-hi]indole-8-carboxylic acid-N-ethylethanamine Salt (Enantiomer 2)], the IC50 in series [1] is 0.322 µM; in series [4] it was 2.14e-05 M; in series [5], 1.63e-05 M; in series [6], 2.07e-05 M; in series [7] it was over 3.3e-05 M; in series [8], over 3.3e-05 M. Moreover, the half-maximal effective concentration (EC50) in series [2] and in series [3] was over 33 µM throughout.
`CCc1c2c(nn1C)CN(C)CCCn1c(C(=O)O)c(CCCOc3cccc4ccccc34)c3ccc(C)c-2c31` (single isomer, unassigned; enantiomer 2) [Example 146, 11-Ethyl-7,10,12-trimethyl-1-[3-(1-naphthyloxy)propyl]-4,5,6,7,8,10-hexahydropyrazolo[3′,4′:7,8][1,5]diazecino[9,10,1-hi]indole-2-carboxylic acid-N-ethylethanamine Salt (Enantiomer 2)]: the IC50 in series [1] worked out at 0.00901 µM; in series [4] it was 1.93e-05 M; in series [5], 1.05e-05 M; in series [6] it was 1.37e-05 M; in series [7], 1.66e-05 M; in series [8], 2.67e-05 M. Moreover, the EC50 in series [2] and in series [3] was over 33 µM in each case.
